Here are results for two compounds from patent US8580525B2, “Methods of screening for LTRPC7 modulators” (The Queen's Medical Center, priority 2000, dated 2013).

Experiment [1] concerns the target T1, LTRPC7 (Mus musculus, UniProt Q923J1).
T1 construct: expressed in transfected cells
Kind of experiment: Equimolar substitution of 10 mM Ca^2+ by other divalent metal ions, whole-cell patch-clamp. It is filed as cell-based. As to conditions: 10 mM test cation replacing 10 mM Ca^2+, HEK-293 over-expressing LTRPC7. As to the method: (§1) For patch-clamp experiments, cells grown on glass coverslips were transferred to the recording chamber and kept in a standard modified Ringer's solution of the following composition (in mM): NaCl 145, KCl 2.8, CsCl 10, CaCl2 1, MgCl2 2, glucose 10, Hepes.NaOH 10, pH 7.2. In some experiments, nominally Ca^2+ and/or Mg^2+-free extracellular solutions or isotonic Ca^2+ solutions (120 mM CaCl2) were applied by pressure ejection from wide-tipped pipettes. Intracellular pipette-filling solutions contained (in mM): Cs-glutamate 145, NaCl 8, MgCl2 1, Cs-BAPTA 10, pH 7.2 adjusted with CsOH. In some experiments, Cs-glutamate was replaced equimolarly by K-glutamate or N-methyl-D-glucamine-chloride. Patch-clamp experiments were performed in the tight-seal whole-cell configuration at 21-25° C. High-resolution current recordings were acquired by a computer-based patch-clamp amplifier system (EPC-9, HEKA, Lambrecht, Germany). Sylgard-coated patch pipettes had resistances between 2-4 M after filling with the standard intracellular solution. Immediately following establishment of the whole-cell configuration, voltage ramps of 50 ms duration spanning the voltage range of −100 to +100 mV were delivered from a holding potential of 0 mV at a rate of 0.5 Hz over a period of 200 to 400 seconds. All voltages were corrected for a liquid junction potential of 10 mV between external and internal solutions when internal solutions contained glutamate. Currents were filtered at 2.3 kHz and digitized at 100 μs intervals. Capacitive currents and series resistance were determined and corrected before each voltage ramp using the automatic capacitance compensation of the EPC-9. The low-resolution temporal development of currents at a given potential was extracted from individual ramp current records by measuring the current amplitudes at voltages of −80 mV or +80 mV.
LTRPC7 represents an ion channel that is selective for divalent cations at negative membrane potentials and its activity is regulated by intracellular levels of Mg.nucleotides (Nadler et al., 2001). Although the channel readily permeates monovalent ions upon removal of all divalent ions, inward currents carried by LTRPC7 under physiological conditions are largely carried by the dominant extracellular ion species Ca^2+ and Mg^2+. Ion currents carried by LTRPC7 have therefore been designated MagNuM (for Magnesium.Nucleotide-regulated Metal ion currents). In order to assess the permeation properties of LTRPC7 for other divalent ions, we measured ionic currents in substitution experiments, where 10 mM Ca^2+ was replaced with 10 mM of other divalent cations (FIG. 7). In these experiments, HEK-293 cells expressing LTRPC7 were kept in a bath solution containing 10 mM Ca^2+, without Mg^2+, and development of MagNuM was monitored by whole-cell patch-clamp as described previously (Nadler et al., 2001). When the current had reached maximal amplitude, cells were transiently exposed to an extracellular solution containing 10 mM of the test cation applied via a puffer pipette for a period of 60 s.
Background: The patch-clamp technique gives a direct electrical read-out from membranes.

Experiment [2] addresses T1, LTRPC7. Kind of experiment: Permeation of divalent metal ions in isotonic solutions, whole-cell patch-clamp. It is filed as cell-based. As to conditions: isotonic solution (120 mM) of test cation for 60 s, HEK-293 over-expressing LTRPC7. As to the method:
as §1
The use of isotonic solutions to probe divalent cation entry through LTRPC7 avoids complications in permeation properties arising from ion-ion interactions, and therefore allows unequivocal interpretation of inward currents—maintained or increased inward currents can only be consistent with permeation of the available extracellular cation. Isotonic solutions of 120 mM of each divalent ion yielded appropriate osmolarities within 10 mOsm from the standard bath and pipette solutions. In this series of experiments, the cells were bathed in the standard external solution containing 1 mM Ca^2+ and 2 mM Mg^2+. At 200 s, when MagNuM had reached its full amplitude, isotonic solutions of each transition metal were applied for 60 s via a puffer pipette.

Experiment [3] deals with T1, LTRPC7. The experiment is described as follows: Mn^2+ quench of fura-2 fluorescence in intact cells. It is filed as cell-based. Conditions: 1 mM Mn^2+, initial 60 s. As to the method: In the second approach, we assayed LTRPC7 activity in intact cells using Mn^2+ quench of fura-2 fluorescence (FIG. 11D). In this experiment, HEK-293 cells over-expressing LTRPC7 were loaded with fura-2-AM and bathed in standard external solution with 1 mM Ca^2+ and 2 mM Mg^2+. Ca^2+-independent fluorescence was monitored at 360 nm (the isosbestic wavelength of fura-2) and after 120 s, an external solution containing 1 mM Mn^2+, 1 mM Ca^2+, and 0 Mg^2+ was applied for 180 s. To determine baseline quench levels, this protocol was applied to HEK-293 cells that were transfected with the same tetracycline-inducible recombinant LTRPC7 construct, but remained uninduced. As clearly shown in FIG. 11D, the application of 1 mM Mn^2+ caused a pronounced quench of the 360 nm signal in HEK-293 cells induced to express LTRPC7 (n=5), whereas Mn^2+-induced quench of the 360 nm signal in uninduced cells (n=5) was noticeable but much less dramatic. Linear regression over the initial 60 s of Mn^2+ exposure yielded a 10-fold higher rate of Mn^2+-induced quench of fura-2 fluorescence in induced cells (28%/o/min) as compared to uninduced cells (2.9%/min).

Experiment [4] has as its target T1, LTRPC7. Kind of experiment: Intracellular perfusion with ATP, whole-cell patch-clamp of recombinant LTRPC7. The class given is cell-based. Here is the method:
as §1

The subject of experiment [5] is Wild type HEK-293. The experiment is described as follows: ATP-dependent endogenous currents, whole-cell patch-clamp. It is filed as cell-based, human. As to conditions: 6 mM ATP in pipette solution. As to the method:
as §1, with “Immediately following establishment of the whole-cell configuration, voltage ramps of 50 ms duration spanning the voltage range of −100 to +100 mV were delivered from a holding potential of 0 mV at a rate of 0.5 Hz over a period of 200 to 400 seconds. All voltages were corrected for a liquid junction potential of 10 mV between external and internal solutions when internal solutions contained glutamate. Currents were filtered at 2.3 kHz and digitized at 100 μs intervals.” left out, “The low-resolution temporal development of currents at a given potential was extracted from individual ramp current records by measuring the current amplitudes at voltages of −80 mV or +80 mV.” left out

Experiment [6] relates to Jurkat T-lymphocytes. Described as above. It is filed as cell-based. As to conditions: 6 mM ATP in pipette solution. Here is the method:
as §1, with “Immediately following establishment of the whole-cell configuration, voltage ramps of 50 ms duration spanning the voltage range of −100 to +100 mV were delivered from a holding potential of 0 mV at a rate of 0.5 Hz over a period of 200 to 400 seconds. All voltages were corrected for a liquid junction potential of 10 mV between external and internal solutions when internal solutions contained glutamate. Currents were filtered at 2.3 kHz and digitized at 100 μs intervals.” left out, “The low-resolution temporal development of currents at a given potential was extracted from individual ramp current records by measuring the current amplitudes at voltages of −80 mV or +80 mV.” left out

The test system of experiment [7] is RBL-2H3. Described as above. The class given is cell-based. Conditions: 6 mM ATP in pipette solution. As to the method: as §1, with “Immediately following establishment of the whole-cell configuration, voltage ramps of 50 ms duration spanning the voltage range of −100 to +100 mV were delivered from a holding potential of 0 mV at a rate of 0.5 Hz over a period of 200 to 400 seconds. All voltages were corrected for a liquid junction potential of 10 mV between external and internal solutions when internal solutions contained glutamate. Currents were filtered at 2.3 kHz and digitized at 100 μs intervals.” left out, “The low-resolution temporal development of currents at a given potential was extracted from individual ramp current records by measuring the current amplitudes at voltages of −80 mV or +80 mV.” left out

Molecules are shown by their SMILES. “Also recorded” adds a separate entry of the source.

T1 sequence (Q923J1 2-1863 limits assumed): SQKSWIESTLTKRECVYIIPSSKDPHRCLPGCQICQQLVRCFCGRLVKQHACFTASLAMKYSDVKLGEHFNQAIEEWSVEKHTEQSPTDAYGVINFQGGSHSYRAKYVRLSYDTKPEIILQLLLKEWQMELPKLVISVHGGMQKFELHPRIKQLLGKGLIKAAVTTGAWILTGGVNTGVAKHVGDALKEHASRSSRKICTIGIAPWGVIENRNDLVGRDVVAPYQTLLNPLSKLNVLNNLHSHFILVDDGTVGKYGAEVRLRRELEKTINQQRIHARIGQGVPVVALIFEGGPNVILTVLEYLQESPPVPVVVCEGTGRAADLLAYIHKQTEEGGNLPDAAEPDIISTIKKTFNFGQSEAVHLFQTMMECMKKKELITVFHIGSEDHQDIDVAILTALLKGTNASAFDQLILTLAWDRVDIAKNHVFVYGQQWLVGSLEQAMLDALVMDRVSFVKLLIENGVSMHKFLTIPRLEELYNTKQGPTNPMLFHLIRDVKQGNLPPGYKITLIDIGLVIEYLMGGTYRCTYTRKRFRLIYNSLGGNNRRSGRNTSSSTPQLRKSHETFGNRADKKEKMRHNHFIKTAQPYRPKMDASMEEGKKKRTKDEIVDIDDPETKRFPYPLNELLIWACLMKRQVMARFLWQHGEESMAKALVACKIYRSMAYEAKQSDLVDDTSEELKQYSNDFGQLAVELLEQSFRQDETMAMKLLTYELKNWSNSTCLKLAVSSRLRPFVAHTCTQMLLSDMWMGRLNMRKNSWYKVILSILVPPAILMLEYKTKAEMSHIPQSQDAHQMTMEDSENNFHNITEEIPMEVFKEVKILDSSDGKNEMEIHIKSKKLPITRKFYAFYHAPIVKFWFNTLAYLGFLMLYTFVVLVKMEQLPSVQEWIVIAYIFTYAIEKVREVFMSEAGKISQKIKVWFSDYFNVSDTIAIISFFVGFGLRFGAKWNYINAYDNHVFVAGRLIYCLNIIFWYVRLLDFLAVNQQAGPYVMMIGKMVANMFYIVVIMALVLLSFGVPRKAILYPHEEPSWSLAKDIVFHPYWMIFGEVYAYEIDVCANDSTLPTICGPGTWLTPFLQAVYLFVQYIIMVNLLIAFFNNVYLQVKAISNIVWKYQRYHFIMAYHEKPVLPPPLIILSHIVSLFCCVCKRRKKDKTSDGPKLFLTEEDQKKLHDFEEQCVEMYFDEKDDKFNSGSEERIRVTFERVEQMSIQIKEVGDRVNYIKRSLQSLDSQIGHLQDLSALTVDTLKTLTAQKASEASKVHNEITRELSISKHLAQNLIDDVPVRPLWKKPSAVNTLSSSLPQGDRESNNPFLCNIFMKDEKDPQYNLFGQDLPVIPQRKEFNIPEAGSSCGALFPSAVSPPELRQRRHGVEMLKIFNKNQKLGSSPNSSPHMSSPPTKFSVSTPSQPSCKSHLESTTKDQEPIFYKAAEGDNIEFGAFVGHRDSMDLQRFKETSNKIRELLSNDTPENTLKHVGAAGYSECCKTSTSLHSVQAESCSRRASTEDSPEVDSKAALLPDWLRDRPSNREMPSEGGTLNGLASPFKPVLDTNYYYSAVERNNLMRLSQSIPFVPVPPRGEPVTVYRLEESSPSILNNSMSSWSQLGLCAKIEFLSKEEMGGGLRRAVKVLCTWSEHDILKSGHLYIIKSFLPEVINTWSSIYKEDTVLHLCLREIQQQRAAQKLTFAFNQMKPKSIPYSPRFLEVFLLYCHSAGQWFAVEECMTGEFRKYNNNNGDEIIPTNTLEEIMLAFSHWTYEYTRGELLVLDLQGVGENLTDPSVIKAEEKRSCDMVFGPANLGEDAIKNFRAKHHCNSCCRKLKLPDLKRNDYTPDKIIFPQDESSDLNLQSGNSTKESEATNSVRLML

On to `[Mn+2]` [Mn^2+], for which the “effect on outward current” value is listed as “block of outward currents; also recorded: block of the outward current” in experiment [1] (60 s, +80 mV) and “strong block of the outward current” in experiment [2] (+80 mV). In addition, the “effect on inward current” value in experiment [1] (60 s, -80 mV) is “slight to moderate increase of the inward current”; in experiment [2] (-80 mV), “gradual increase of the inward current”. Also, the “increase in inward current compared to Ca^2+” value in experiment [1] (no Mg^2+, -80 mV) is reported as “less than double”. Besides, the “rate of Mn^2+-induced quench, induced compared to uninduced cells” value in experiment [3] turned out to be 10 fold. Further, in experiment [3] (360 nm, uninduced cells), the “rate of Mn^2+-induced quench of fura-2 fluorescence” value is 2.9 %/min.

Regarding `Nc1ncnc2c1ncn2[C@@H]1O[C@H](COP(=O)(O)OP(=O)(O)OP(=O)(O)O)[C@@H](O)[C@H]1O` [ATP], the “change of maximum outward current after whole-cell establishment” value in experiment [4] (6 mM ATP in pipette, +80 mV, 300 s) is given as “currents are actually decreasing after break-in”. In addition, the “intracellular concentration that causes the LTRPC7 channel to close” value in experiment [4] (intracellular ATP) is on record as 6-10 millimolar. For the same compound, the “intracellular concentration that causes the LTRPC7 channel to reopen” value in experiment [4] (intracellular ATP) is reported as 0-4 millimolar. The “outwardly rectifying cationic conductance” value in experiment [5], in experiment [6] and in experiment [7] was “absent” each time.
